Data taken from article PMC8158844 (ACS Omega, 2021).
Marks after values point to notes of the source that are not given here.

Legend:
[1] = Chemical stability in aqueous solution; assay type: physicochemical; conditions: for stability in PBS buffer (percent of parent remaining): PBS buffer pH 7.4 with 0.2% Triton X-100, 60 min, 37 °C
[2] = Metabolic stability in rat liver S9 fraction; assay type: in vitro ADME; conditions: 30 min incubation in the presence of NADPH
[3] = Metabolic stability in porcine liver S9 fraction; assay type: in vitro ADME; conditions: 30 min; for stability porcine liver S9 fractions (percent of parent remaining): 37 °C, no NADPH added; for stability in the absence of BNNP (percent of parent remaining) / stability in the presence of BNNP (percent of parent remaining): porcine liver homogenate; for stability in the presence of BNNP (percent of parent remaining): carboxylesterase 1 inhibitor BNPP 1 mM
[4] = Metabolic stability in porcine blood plasma; assay type: in vitro ADME; conditions: for metabolic stability porcine plasma (percent of parent remaining): Table 1, 30 min incubation, n = 3; for stability porcine blood plasma (percent of parent remaining): Table 3, 30 min, 37 °C, n = 3 unless otherwise stated
porcine albumin = porcine albumin (Sus scrofa, UniProt P08835); assay: Stability in porcine albumin solution; assay type: in vitro ADME; conditions: porcine albumin 17.5 mg/mL in PBS; 30 min, 37 °C
porcine albumin, sequence (P08835 25-607): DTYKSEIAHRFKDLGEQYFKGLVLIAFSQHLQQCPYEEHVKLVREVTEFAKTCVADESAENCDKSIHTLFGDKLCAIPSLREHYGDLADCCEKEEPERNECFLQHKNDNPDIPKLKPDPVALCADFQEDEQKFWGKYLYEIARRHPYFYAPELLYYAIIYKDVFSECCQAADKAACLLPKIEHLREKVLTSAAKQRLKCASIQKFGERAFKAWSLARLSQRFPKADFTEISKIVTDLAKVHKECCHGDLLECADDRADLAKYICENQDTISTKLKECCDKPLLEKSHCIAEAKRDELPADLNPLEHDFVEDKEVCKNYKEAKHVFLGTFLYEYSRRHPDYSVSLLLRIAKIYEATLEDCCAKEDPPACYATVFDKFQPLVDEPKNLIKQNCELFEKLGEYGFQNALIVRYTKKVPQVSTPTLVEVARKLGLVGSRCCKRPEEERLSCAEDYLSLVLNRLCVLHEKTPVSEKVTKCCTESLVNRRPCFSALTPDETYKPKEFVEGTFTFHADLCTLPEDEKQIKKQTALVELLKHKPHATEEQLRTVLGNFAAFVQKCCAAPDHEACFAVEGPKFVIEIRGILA

FAAH = molecular target: T1, FAAH (Rattus norvegicus, UniProt P97612); assay: Inhibition of fatty acid amide hydrolase; assay type: biochemical
T1 sequence (P97612 1-579): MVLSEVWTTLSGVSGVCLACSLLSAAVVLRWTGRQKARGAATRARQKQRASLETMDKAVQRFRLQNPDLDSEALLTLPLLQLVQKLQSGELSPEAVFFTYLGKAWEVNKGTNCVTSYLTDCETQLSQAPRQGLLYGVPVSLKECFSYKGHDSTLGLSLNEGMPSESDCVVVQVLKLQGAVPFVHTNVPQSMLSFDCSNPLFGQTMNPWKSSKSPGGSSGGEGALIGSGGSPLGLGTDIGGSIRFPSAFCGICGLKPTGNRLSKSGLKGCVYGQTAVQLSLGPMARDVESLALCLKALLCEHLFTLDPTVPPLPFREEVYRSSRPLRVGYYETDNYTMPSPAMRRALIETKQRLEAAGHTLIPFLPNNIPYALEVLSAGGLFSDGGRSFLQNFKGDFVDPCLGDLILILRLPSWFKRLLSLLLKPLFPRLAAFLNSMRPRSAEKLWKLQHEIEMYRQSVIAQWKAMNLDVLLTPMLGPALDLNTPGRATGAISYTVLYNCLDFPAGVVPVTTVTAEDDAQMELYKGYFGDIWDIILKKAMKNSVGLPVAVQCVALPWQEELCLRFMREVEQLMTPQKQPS

human recombinant MAGL = molecular target: T2, human recombinant MAGL (Homo sapiens, UniProt Q99685); assay: Inhibition of monoacylglycerol lipase; assay type: biochemical
T2 sequence (Q99685 1-303): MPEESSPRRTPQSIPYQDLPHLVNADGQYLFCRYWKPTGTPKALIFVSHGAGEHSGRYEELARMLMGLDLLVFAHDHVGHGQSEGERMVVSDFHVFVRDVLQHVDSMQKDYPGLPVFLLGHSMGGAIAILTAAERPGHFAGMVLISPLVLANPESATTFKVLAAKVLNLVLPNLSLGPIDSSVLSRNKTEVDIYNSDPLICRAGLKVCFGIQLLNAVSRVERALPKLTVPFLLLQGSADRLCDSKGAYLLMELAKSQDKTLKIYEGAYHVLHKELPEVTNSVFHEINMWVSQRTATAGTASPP

Row | Structure (SMILES) | stability in PBS buffer (percent of parent remaining) [1] | metabolic stability rat liver S9 fraction (percent of parent remaining) [2] | stability porcine liver S9 fractions (percent of parent remaining) [3] | metabolic stability porcine plasma (percent of parent remaining) [4] | stability porcine blood plasma (percent of parent remaining) [4] | stability porcine albumin solution (percent of parent remaining) (porcine albumin) | IC50 (FAAH) | stability in the absence of BNNP (percent of parent remaining) [3] | stability in the presence of BNNP (percent of parent remaining) [3] | cleavage in PBS buffer (pH 7.4) into the amine and 4-hydroxybenzonitrile ([1]; after 30 min at 37 °C, HPLC/MS) | IC50 (human recombinant MAGL) | inhibition at 10 µM (human recombinant MAGL; read-out: MAGL inhibition at 10 μM) | factor by which MAGL activity exceeds reference inhibitor ABX-1431 (human recombinant MAGL; ratio of MAGL IC50 values) | decrease in FAAH inhibitory activity compared with compound 14 (FAAH; ratio of FAAH IC50 values)
1 | O=C(OC(C(F)(F)F)C(F)(F)F)N1CCN(Cc2ccc(C(F)(F)F)cc2N2CCCC2)CC1 [ABX-1431 (2), reference compound] | 90 ± 5% | 92 ± 2% | 81 ± 3% | 95 ± 2% | 95 ± 2% | 87 ± 6% | – | – | – | – | – | – | – | –
2 | O=C(NCCCCn1ccc2ccc(F)cc21)Oc1ccccc1 [Compound 11] | – | 75 ± 6% | – | 74 ± 2% | – | – | 470 nM | – | – | – | – | – | – | –
3 | O=C(NCCCCCn1ccc2ccc(F)cc21)Oc1ccccc1 [Compound 14, Phenyl N-[5-(6-Fluoroindol-1-yl)pentyl]carbamate] | >95% | 66 ± 8% | – | 80 ± 6% | – | 93 ± 6^n = 6% | 29 nM | 76 ± 2% | 87 ± 9% | – | – | – | – | –
4 | O=C(NCCCCCCn1ccc2ccc(F)cc21)Oc1ccccc1 [Compound 17] | – | 73 ± 2% | – | 55 ± 2% | – | – | 85 nM | – | – | – | – | – | – | –
5 | O=C(NCCCCCCCn1ccc2ccc(F)cc21)Oc1ccccc1 [Compound 21] | – | 74 ± 11% | – | 34 ± 5% | – | – | 84 nM | – | – | – | – | – | – | –
6 | O=C(NCCCCCCCCn1ccc2ccc(F)cc21)Oc1ccccc1 [Compound 25, Phenyl N-[8-(6-Fluoroindol-1-yl)octyl]carbamate] | – | 74 ± 5% | – | 65 ± 2% | – | – | 130 nM | – | – | – | – | – | – | –
7 | O=C(NCCCCCn1ccc2ccc(F)cc21)Oc1ccc(F)cc1 [Compound 26, 4-Fluorophenyl N-[5-(6-Fluoroindol-1-yl)pentyl]carbamate] | >95% | – | 69 ± 4% | – | 59 ± 13^n = 6% | 91 ± 6^n = 5% | 49 nM | – | – | – | – | – | – | –
8 | N#Cc1ccc(OC(=O)NCCCCCn2ccc3ccc(F)cc32)cc1 [Compound 29, 4-Cyanophenyl N-[5-(6-Fluoroindol-1-yl)pentyl]carbamate] | 12 ± 3% | – | – | – | – | – | – | – | – | nearly totally cleaved | – | – | – | –
9 | N#Cc1cccc(OC(=O)NCCCCCn2ccc3ccc(F)cc32)c1 [Compound 30] | 72 ± 3% | – | 49 ± 4% | – | < 5% | <5% | 8 nM | – | – | – | 380 nM | – | – | –
10 | N#Cc1ccccc1OC(=O)NCCCCCn1ccc2ccc(F)cc21 [Compound 31] | 3 ± 2% | – | – | – | – | – | – | – | – | – | – | – | – | –
11 | O=C(NCCCCCn1ccc2ccc(F)cc21)Oc1ccc(C(=O)O)cc1 [Compound 33, 4-({[5-(6-Fluoroindol-1-yl)pentyl]carbamoyl}oxy)benzoic Acid] | >95% | – | 59 ± 6% | – | 37 ± 2% | 90 ± 9% | 12 nM | 59 ± 6% | 81 ± 8% | – | 3300 nM | – | – | –
12 | O=C(NCCCCCn1ccc2ccc(F)cc21)Oc1cccc(C(=O)O)c1 [Compound 35] | >95% | – | 74 ± 2% | – | 78 ± 1% | 93 ± 3% | 18 nM | – | – | – | > 10000 nM | 31% | – | –
13 | O=C(NCCCCCn1ccc2ccc(F)cc21)Oc1ccccc1C(=O)O [Compound 37, 2-({[5-(6-Fluoroindol-1-yl)pentyl]carbamoyl}oxy)benzoic Acid] | 73 ± 6% | – | 77 ± 3% | – | 28 ± 4% | 74 ± 2% | 38 nM | – | – | – | 38 nM | – | 15 | –
14 | O=C(NCCCCCn1ccc2ccc(F)cc21)Oc1cccnc1 [Compound 44] | 60 ± 2% | – | 53 ± 7% | – | <5% | 27 ± 3% | 2 nM | – | – | – | 170 nM | – | – | –
15 | Cc1ncccc1OC(=O)NCCCCCn1ccc2ccc(F)cc21 [Compound 45] | 75 ± 4% | – | 65 ± 9% | – | 23 ± 6% | 70 ± 8% | 10 nM | – | – | – | 140 nM | – | – | –
16 | Cc1ccc(OC(=O)NCCCCCn2ccc3ccc(F)cc32)cn1 [Compound 48] | 82 ± 6% | – | 51 ± 9% | – | <5% | 62 ± 4% | 4 nM | – | – | – | 310 nM | – | – | –
17 | O=C(NCCCCCn1ccc2ccc(F)cc21)Oc1cccc2[nH]ccc12 [Compound 49, Indol-4-yl N-[5-(6-Fluoroindol-1-yl)pentyl]carbamate] | >95% | – | 78 ± 4% | – | 80 ± 3% | 81 ± 6% | 180 nM | – | – | – | – | – | – | about 6 fold
18 | O=C(O)c1ccc(OC(=O)N2CCC(CCn3ccc4ccc(F)cc43)CC2)cc1 [Compound 54, 4-({4-[2-(6-Fluoroindol-1-yl)ethyl]piperidine-1-carbonyl}oxy)benzoic Acid] | >95% | – | 66 ± 9% | – | 94 ± 3% | 93 ± 8% | 15 nM | – | – | – | – | – | – | –
19 | O=C(O)c1cccc(OC(=O)N2CCC(CCn3ccc4ccc(F)cc43)CC2)c1 [Compound 56] | >95% | – | 72 ± 7% | – | >95% | 94 ± 3% | 27 nM | – | – | – | – | – | – | –
20 | O=C(O)c1ccccc1OC(=O)N1CCC(CCn2ccc3ccc(F)cc32)CC1 [Compound 58] | >95% | – | 72 ± 6% | – | >95% | 89 ± 6% | 3500 nM | – | – | – | – | – | – | –
21 | CCOC(=O)C1=C[C@@H](OC(CC)CC)[C@H](NC(C)=O)[C@@H](N)C1 [oseltamivir, reference compound] | – | – | – | – | – | – | – | 11 ± 2% | 97 ± 1% | – | – | – | – | –
22 | CNC(=O)Oc1ccc2c(c1)[C@]1(C)CCN(C)[C@@H]1N2C [physostigmine, reference compound] | >95% | 76 ± 7% | 57 ± 4% | >95% | >95% | >95% | – | – | – | – | – | – | – | –
